From patent US7629317B2, “Control of growth and repair of gastro-intestinal tissues by gastrokines and inhibitors” (The University of Chicago, priority 2001, dated 2009)

Experiments:
[1] = tested on: BSC-1 epithelial cell line; assay: Growth (mitogenesis) assay on confluent BSC-1 cells, cells counted 4 days later; assay type: cell-based, monkey; conditions: compared with related peptides
Excerpt: Finding that a 42-amino acid peptide representing a central region of the novel antrum mucosal cell protein AMP-18 had mitogenic activity similar in character to that of the intact protein in pig and mouse antrum extracts (Table 1), has facilitated the characterization of the bio-active region of the molecule. […] Growth activity determinations have so far been accomplished with the kidney epithelial cell line as well as several gastric and intestinal lines.
Non-transformed monkey kidney epithelial cell line BSC-1 and other epithelial cell lines were used to assess effects on growth. In general, conditions were chosen for each line such that cells are grown to confluence in plastic dishes in supplemented growth medium with minimal calf (or fetal) serum for growth (Lieske et al., 1997); BSC-1 cells become confluent at 10^6/60 mm dish with 1% calf serum. At the start of the growth assay the medium on the confluent culture was aspirated and replaced with fresh medium with minimal serum to maintain viability (0.01% for BSC-1) cells. AMP-18 preparations were added to the culture medium and 4 days later the cell monolayer was rinsed, detached with trypsin, and the cells were counted using a hemocytometer. Determination of the capacity of AMP-18 to initiate DNA synthesis was measured by the incorporation of [^3H]thymidine (Toback, 1980); to confirm the DNA synthesis assay, autoradiograms of leveled cells were counted (Kartha and Toback, 1985).

HeLa cells = assay: Growth of HeLa cells (non-GI control); assay type: cell-based, human; conditions: peptide up to 8 μg/ml
Protocol: To characterize the capacity of gastric and intestinal cells to respond to AMP-18, AGS gastric adenocarcinoma cells, HAE human gastric antrum mucosa primary cultures transformed with SV40 large T antigen, rat diploid small intestinal epithelial cells of the IEC-6 (FIG. 15) and IEC-18 lines, NCI N-87 gastric carcinoma cells, and SK-GT5 gastroesophageal adenocarcinoma cells were studied; human WI-38 fibroblasts and HeLa cells served as non-GI control cell lines. Mitogenesis was assayed by performing cell counts 3 to 4 days after exposing cells to the agent of interest, trypsinizing the culture to prepare single cells, and confirming this while counting them in a hemocytometer.

## LDALVKEKKLQGKGPGGPPPK [97–117, peptide 77-97 of the mature protein, same as 97-117 of the human precursor]
[1]; listed as peptide 97-107
  mitogenic activity (in words): equal to the 42-mer
[1]; listed as peptide 97-117
  mitogenic activity (in words): enhanced activity
HeLa cells
  growth stimulation of HeLa cells: does not stimulate growth
HeLa cells; listed as AMP peptide
  growth stimulation of HeLa cells: failure
